Assay results as given in the supplement of paper PMC13207355.

Key:
Conditions in all cases: exposure time: 72 h
E34 [1] = patient-derived glioblastoma stem cells of proneural subtype; experiment: surviving fraction (nuclei count normalised to DMSO); higher = more cells surviving (less toxic)
E13 [2] = patient-derived glioblastoma stem cells of classical subtype; experiment: as above
E28 [3] = patient-derived glioblastoma stem cells of classical subtype; experiment: as above
E21 [4] = patient-derived glioblastoma stem cells of mesenchymal subtype; experiment: as above
E31 [5] = patient-derived glioblastoma stem cells of proneural subtype; experiment: as above
FT3469 [6] = normal neural stem cell line; experiment: as above
E57 [7] = patient-derived glioblastoma stem cells of mesenchymal subtype; experiment: as above
E34 [8] = experiment: phenotypic distance (Euclidean, principal components) from DMSO controls (arbitrary units); higher = stronger morphological change
E13 [9] = experiment: as above
E28 [10] = experiment: as above
E21 [11] = experiment: as above
E31 [12] = experiment: as above
FT3469 [13] = experiment: as above
E57 [14] = experiment: as above
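For phenotypic distance (Euclidean, principal components) from DMSO controls in this document: cell Painting imaging in 384-well plates, CellProfiler features reduced to at least 20 principal components, Euclidean distance versus same-plate DMSO vehicle wells (0.1% v/v), median over six images per well.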
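For surviving fraction (nuclei count normalised to DMSO) in this document: nuclei counted by high-content imaging of Hoechst-stained cells in laminin-coated 384-well plates, relative to 0.1% DMSO vehicle wells, with staurosporine as cell-death control.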

COC(=O)C[C@](O)(CCCC(C)(C)O)C(=O)O[C@@H]1C(OC)=C[C@]23CCCN2CCc2cc4c(cc2[C@H]13)OCO4 [Homoharringtonine]
Conditions	phenotypic distance	surviving fraction
E13 [2], 4.1 nM	–	0.73
E13 [2], 12.3 nM	–	0.702
E13 [2], 37 nM	–	0.367
E13 [2], 111.1 nM	–	0.401
E13 [2], 333.3 nM	–	0.316
E13 [2], 1000 nM	–	0.239
E13 [2], 3000 nM	–	0.0816
E13 [9], 4.1 nM	1.66	–
E13 [9], 12.3 nM	2.13	–
E13 [9], 37 nM	4.35	–
E13 [9], 111.1 nM	3.97	–
E13 [9], 333.3 nM	5.67	–
E13 [9], 1000 nM	7.51	–
E13 [9], 3000 nM	8.63	–
E21 [4], 4.1 nM	–	0.726
E21 [4], 12.3 nM	–	0.721
E21 [4], 37 nM	–	0.289
E21 [4], 111.1 nM	–	0.402
E21 [4], 333.3 nM	–	0.186
E21 [4], 1000 nM	–	0.179
E21 [4], 3000 nM	–	0.0999
E21 [11], 4.1 nM	1.39	–
E21 [11], 12.3 nM	1.73	–
E21 [11], 37 nM	4.36	–
E21 [11], 111.1 nM	3.63	–
E21 [11], 333.3 nM	4.11	–
E21 [11], 1000 nM	5.37	–
E21 [11], 3000 nM	8.36	–
E28 [3], 4.1 nM	–	0.694
E28 [3], 12.3 nM	–	0.573
E28 [3], 37 nM	–	0.334
E28 [3], 111.1 nM	–	0.41
E28 [3], 333.3 nM	–	0.336
E28 [3], 1000 nM	–	0.343
E28 [3], 3000 nM	–	0.282
E28 [10], 4.1 nM	1.42	–
E28 [10], 12.3 nM	1.38	–
E28 [10], 37 nM	2.63	–
E28 [10], 111.1 nM	1.37	–
E28 [10], 333.3 nM	2.87	–
E28 [10], 1000 nM	3.53	–
E28 [10], 3000 nM	4.17	–
E31 [5], 4.1 nM	–	0.502
E31 [5], 12.3 nM	–	0.372
E31 [5], 37 nM	–	0.226
E31 [5], 111.1 nM	–	0.218
E31 [5], 333.3 nM	–	0.209
E31 [5], 1000 nM	–	0.164
E31 [5], 3000 nM	–	0.171
E31 [12], 4.1 nM	1.9	–
E31 [12], 12.3 nM	2.41	–
E31 [12], 37 nM	3.5	–
E31 [12], 111.1 nM	4.14	–
E31 [12], 333.3 nM	4.68	–
E31 [12], 1000 nM	5.99	–
E31 [12], 3000 nM	5.88	–
E34 [1], 4.1 nM	–	0.844
E34 [1], 12.3 nM	–	0.873
E34 [1], 37 nM	–	0.505
E34 [1], 111.1 nM	–	0.553
E34 [1], 333.3 nM	–	0.434
E34 [1], 1000 nM	–	0.412
E34 [1], 3000 nM	–	0.337
E34 [8], 4.1 nM	1.44	–
E34 [8], 12.3 nM	1.62	–
E34 [8], 37 nM	2.68	–
E34 [8], 111.1 nM	3.86	–
E34 [8], 333.3 nM	3.89	–
E34 [8], 1000 nM	4.65	–
E34 [8], 3000 nM	6.65	–
E57 [7], 4.1 nM	–	0.931
E57 [7], 12.3 nM	–	0.677
E57 [7], 37 nM	–	0.207
E57 [7], 111.1 nM	–	0.215
E57 [7], 333.3 nM	–	0.102
E57 [7], 1000 nM	–	0.0784
E57 [7], 3000 nM	–	0.0251
E57 [14], 4.1 nM	1.28	–
E57 [14], 12.3 nM	2.53	–
E57 [14], 37 nM	4.58	–
E57 [14], 111.1 nM	4.46	–
E57 [14], 333.3 nM	6.69	–
E57 [14], 1000 nM	8.52	–
E57 [14], 3000 nM	8.81	–
FT3469 [6], 4.1 nM	–	0.701
FT3469 [6], 12.3 nM	–	0.669
FT3469 [6], 37 nM	–	0.604
FT3469 [6], 111.1 nM	–	0.589
FT3469 [6], 333.3 nM	–	0.536
FT3469 [6], 1000 nM	–	0.53
FT3469 [6], 3000 nM	–	0.436
FT3469 [13], 4.1 nM	1.22	–
FT3469 [13], 12.3 nM	1.49	–
FT3469 [13], 37 nM	1.36	–
FT3469 [13], 111.1 nM	2	–
FT3469 [13], 333.3 nM	1.75	–
FT3469 [13], 1000 nM	2.95	–
FT3469 [13], 3000 nM	3.51	–
